Experimental data: patent US20250145622A1, “SOLID FORMS OF A TRIAZINE DERIVATIVE AS CBL-B MODULATOR” (HOTSPOT THERAPEUTICS, INC., priority 2022, published 2025)
≈ marks a conversion by molar mass, not a printed value. Entries after “also recorded” stand apart in the source; their conditions may differ. Where two headings read alike, the source gives them in different places. Each block holds one compound with its values, some of them ahead of it.

What was measured:
Type in all cases: physicochemical
[1] = Solubility determination by solvent addition (visual assessment); conditions: thermodynamic from solid
Protocol: Aliquots of various solvents were added to measured amounts of the anhydrous crystalline form of the compound of formula (I) at various temperatures with sonication or stirring. Solubilities were calculated based on the total solvent used to give a solution; actual solubilities may be greater because of the volume of solvent portions utilized or a slow rate of dissolution. […] If dissolution occurred at the first aliquot the value was reported as “>”.

[2] = Dynamic vapor sorption (DVS), water sorption isotherm
Protocol: Vapor sorption data were collected on a Surface Measurement System DVS Intrinsic instrument. Samples were not dried prior to analysis. Sorption and desorption data were collected over a range from 5% to 95% RH at 10% RH increments under a nitrogen purge. The equilibrium criterion used for analysis was less than 0.0100% weight change in 5 minutes with a maximum equilibration time of 3 hours.

[3] = as above; remark: listed apart in the source

solubility ([1]; water, 25° C., by solvent addition, read-out: aqueous solubility): > 111 mg/mL
Structure (SMILES): C[C@H]1CCCN(Cc2cc(C(F)(F)F)c3cn(-c4cccc([C@H](c5nncn5C)C5CCC5)c4)c(=O)n3c2)C1

solubility ([1]; aqueous with cosolvent or surfactant or cyclodextrin, solvent Water/EtOH (20/80 v/v), read-out: Solubility): > 29 mg/mL | solubility ([1]; aqueous with cosolvent or surfactant or cyclodextrin, solvent Water/EtOH (40/60 v/v), read-out: Solubility): > 36 mg/mL | solubility ([1]; aqueous with cosolvent or surfactant or cyclodextrin, solvent Water/EtOH (50/50 v/v), read-out: Solubility): 9 mg/mL (≈ 16.7 mM) | solubility ([1]; aqueous with cosolvent or surfactant or cyclodextrin, solvent Water/EtOH (60/40 v/v), read-out: Solubility): < 4 mg/mL | solubility ([1]; aqueous with cosolvent or surfactant or cyclodextrin, solvent Water/IPA (20/80 v/v), read-out: Solubility): > 30 mg/mL | solubility ([1]; aqueous with cosolvent or surfactant or cyclodextrin, solvent Water/IPA (40/60 v/v), read-out: Solubility): > 37 mg/mL | solubility ([1]; aqueous with cosolvent or surfactant or cyclodextrin, solvent Water/IPA (60/40 v/v), read-out: Solubility): 9 mg/mL (≈ 16.7 mM) | solubility ([1]; aqueous with cosolvent or surfactant or cyclodextrin, solvent Water/MeOH (20/80 v/v), read-out: Solubility): > 29 mg/mL | solubility ([1]; aqueous with cosolvent or surfactant or cyclodextrin, solvent Water/MeOH (40/60 v/v), read-out: Solubility): 7 mg/mL (≈ 13 mM) | solubility ([1]; aqueous with cosolvent or surfactant or cyclodextrin, solvent Water/MeOH (60/40 v/v), read-out: Solubility): < 3 mg/mL | solubility ([1]; organic solvent or mixture, solvent ACN, read-out: Solubility): 85 mg/mL (≈ 158 mM) | solubility ([1]; organic solvent or mixture, solvent Acetone, read-out: Solubility): 31 mg/mL (≈ 57.6 mM) | solubility ([1]; organic solvent or mixture, solvent DCM, read-out: Solubility): > 100 mg/mL | solubility ([1]; organic solvent or mixture, solvent DIPE, read-out: Solubility): < 2 mg/mL | solubility ([1]; organic solvent or mixture, solvent EtOAc, read-out: Solubility): 38 mg/mL (≈ 70.6 mM) | solubility ([1]; organic solvent or mixture, solvent EtOH, read-out: Solubility): 99 mg/mL (≈ 184 mM) | solubility ([1]; organic solvent or mixture, solvent Heptane, read-out: Solubility): < 1 mg/mL | solubility ([1]; organic solvent or mixture, solvent IPA, read-out: Solubility): 79 mg/mL (≈ 147 mM) | solubility ([1]; organic solvent or mixture, solvent MTBE, read-out: Solubility): 4 mg/mL (≈ 7.43 mM) | solubility ([1]; organic solvent or mixture, solvent MeOH, read-out: Solubility): 91 mg/mL (≈ 169 mM) | solubility ([1]; organic solvent or mixture, solvent THF, read-out: Solubility): 95 mg/mL (≈ 176 mM) | solubility ([1]; organic solvent or mixture, solvent Toluene, read-out: Solubility): 99 mg/mL (≈ 184 mM) | solubility ([1]; solvent Water, read-out: Solubility): < 1 mg/mL | XRPD analysis on the post-DVS sample (solid form) ([2]; after DVS): amorphous | weight gain ([2]; from 5% to 74% RH): 1.2 % wt. | water taken up during sorption ([2]; from 5 to 95% RH): 0.1 moles of water per mole of API | weight gain during the sorption step ([2]; from 5 to 95% relative humidity (RH)): 0.4% | appearance of sample after DVS ([2]; upon desorption): signs of partial deliquescence | hygroscopicity classification ([2]; water sorption isotherm, Ph. Eur. 10.0 classes): slightly hygroscopic | total water gained ([3]; 5% to 96% RH): 7.6 moles of water | total weight gained ([3]; 5% to 96% RH): 15.8% | weight gain ([3]; from 75% to 96% RH): 14.6 % wt.
Structure (SMILES): C[C@H]1CCCN(Cc2cc(C(F)(F)F)c3cn(-c4cccc([C@H](c5nncn5C)C5CCC5)c4)c(=O)n3c2)C1 [2-(3-((R)-cyclobutyl(4-methyl-4H-1,2,4-triazol-3-yl)methyl)phenyl)-6-(((S)-3-methylpiperidin-1-yl)methyl)-8-(trifluoromethyl)imidazo[1,5-a]pyridin-3(2H)-one]
hysteresis on desorption ([2]; desorption step): very minor hysteresis; also recorded: Significant hysteresis
